Data from US20150087657A1, “MULTICOMPONENT CRYSTALLINE SYSTEM OF VORICONAZOLE WITH FUMARIC ACID” (BASF SE, priority 2011, published 2015).
In brackets after ≈: the same amount, converted by molar mass.

Assay: Solubility determination of vrx and vrx-co-crystals in water
Type: physicochemical
Settings: 37° C.
Procedure: Solubility determinations of the vrx (free drug substance), the vrx-fumaric acid co-crystal and the vrx-L-tartaric acid co-crystal described in the below comparative example are carried out as follows. To 20 mg of a solid sample, 5.0 ml water is added and the mixture is placed on a laboratory shaker at 500 rpm at 37° C. After 24 hours, a small sample of about 1.0 ml is recovered with a syringe and filtered through a 0.1 micrometer PVDF Millipore filtration unit. This sample is appropriately diluted and the concentration is determined by HPLC.

Compound | aqueous solubility higher than the free drug substance and the L-tartaric acid co-crystal (24 h, relative to table 4 comparators) | Solubility of Voriconazole (equilibration time 24 h, 20 mg solid in 5.0 ml, HPLC, value refers to Voriconazole) [µg/mL] | solubility at 24 h (thermodynamic from solid, equilibration time 24 h, 20 mg solid in 5.0 ml, HPLC, value refers to Voriconazole) [µg/mL]
CC(c1ncncc1F)C(O)(Cn1cncn1)c1ccc(F)cc1F.O=C(O)C=CC(=O)O (stereo not drawn) [Co-crystal with fumaric acid] | about 30% | 1300 | –
C[C@@H](c1ncncc1F)[C@](O)(Cn1cncn1)c1ccc(F)cc1F [Voriconazole free drug, (2R,3S)-2-(2,4-difluorophenyl)-3-(5-fluoropyrimidin-4-yl)-1-(1H-1,2,4-triazol-1-yl)butan-2-ol, reference compound] | – | – | 1010 (≈ 2890 µM)
